How the values were obtained:
SMYD3 [1] = target: T1, SMYD3 (Homo sapiens (Human), UniProt Q9H7B4); test: SMYD3 cell assay (Trimethyl-MEKK2 In-Cell Western in 293T/17 cells); type: cell-based; settings: read-out: SMYD3 Cell IC50*
In short: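 In-Cell Western ratio of trimethyl-Lys260 MEKK2 to anti-flag signal; percent inhibition from DMSO and maximum-inhibition controls, IC50 by non-linear regression, triplicates.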

SMYD3 [2] = target: T1, SMYD3; test: SMYD3 biochemical assay (SPA, 3H-SAM methylation of MEKK2 protein substrate); settings: read-out: SMYD3 Biochem IC50*
In short: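 Native full-length human SMYD3 (E. coli-expressed, tags removed) was preincubated with compound for 30 min at room temperature in 25 mM Tris-Cl pH 8.0, 1 mM TCEP, 0.005% BSG, 0.005% Tween 20. Reaction was started with 3H-SAM plus GST-MEKK2, quenched with 100 uM unlabeled SAM, and read by SPA scintillation counting.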

T1 sequence (Q9H7B4 whole entry): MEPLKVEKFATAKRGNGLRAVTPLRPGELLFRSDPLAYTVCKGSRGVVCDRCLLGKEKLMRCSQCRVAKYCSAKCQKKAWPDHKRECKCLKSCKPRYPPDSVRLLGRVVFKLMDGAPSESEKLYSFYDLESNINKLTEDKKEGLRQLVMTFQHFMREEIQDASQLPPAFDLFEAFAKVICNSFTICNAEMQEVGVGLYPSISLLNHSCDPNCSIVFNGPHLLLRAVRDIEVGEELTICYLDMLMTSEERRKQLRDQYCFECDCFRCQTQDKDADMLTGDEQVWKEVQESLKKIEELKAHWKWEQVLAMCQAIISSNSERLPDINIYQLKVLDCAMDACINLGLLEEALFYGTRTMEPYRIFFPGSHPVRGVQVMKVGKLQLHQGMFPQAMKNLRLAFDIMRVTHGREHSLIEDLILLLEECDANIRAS

Row | Compound | IC50 (SMYD3 [1]) | IC50 (SMYD3 [2])
1 | CCc1cc(C(=O)N[C@H]2C[C@H]3CC[C@@H](C2)N3S(=O)(=O)[C@H]2CC[C@@H](N)CC2)no1 [compound 815, N-((1R,3R,5S)-8-(((1s,4S)-4-aminocyclohexyl)sulfonyl)-8-azabicyclo[3.2.1]octan-3-yl)-5-ethylisoxazole-3-carboxamide] | 52.6 nM | 2.78 nM
2 | C[C@@H](C1CCN(C)CC1)S(=O)(=O)N1[C@@H]2CC[C@H]1C[C@@H](NC(=O)c1cc(C3CC3)on1)C2 [compound 816, 5-cyclopropyl-N-((1R,3S,5S)-8-(((S)-1-(1-methylpiperidin-4-yl)ethyl)sulfonyl)-8-azabicyclo[3.2.1]octan-3-yl)isoxazole-3-carboxamide] | 52.3 nM | 2.91 nM
3 | O=C(N[C@H]1C[C@H]2CC[C@@H](C1)N2S(=O)(=O)N1CC2CCC(C1)N2)c1cc(C2CC2)on1 [compound 817, N-((1R,3r,5S)-8-((3,8-diazabicyclo[3.2.1]octan-3-yl)sulfonyl)-8-azabicyclo[3.2.1]octan-3-yl)-5-cyclopropylisoxazole-3-carboxamide] | 34.8 nM | 3.11 nM
4 | CC(C)CN1CCC2(CC1)CN(S(=O)(=O)N1[C@@H]3CC[C@H]1C[C@@H](NC(=O)c1cc(C4CC4)on1)C3)C2 [compound 818, 5-cyclopropyl-N-((1R,3r,5S)-8-((7-isobutyl-2,7-diazaspiro[3.5]nonan-2-yl)sulfonyl)-8-azabicyclo[3.2.1]octan-3-yl)isoxazole-3-carboxamide] | 55.4 nM | 3.13 nM
5 | C[C@H]1C[C@@H](NC(=O)c2cc(C3CC3)on2)CCN1S(=O)(=O)C[C@@H]1CCC[C@@H](N)C1 [compound 819, N-((2S,4S)-1-((((1R,3R)-3-aminocyclohexyl)methyl)sulfonyl)-2-methylpiperidin-4-yl)-5-cyclopropylisoxazole-3-carboxamide] | 124 nM | 3.2 nM
6 | CN(CCO)C1CCN(S(=O)(=O)N2[C@@H]3CC[C@H]2C[C@@H](NC(=O)c2cc(C4CC4)on2)C3)CC1 [compound 820, 5-cyclopropyl-N-((1R,3r,5S)-8-((4-((2-hydroxyethyl)(methyl)amino)piperidin-1-yl)sulfonyl)-8-azabicyclo[3.2.1]octan-3-yl)isoxazole-3-carboxamide] | 57.4 nM | 3.27 nM
7 | CC(C)CCNC1CCN(S(=O)(=O)N2[C@@H]3CC[C@H]2C[C@@H](NC(=O)c2cc(C4CC4)on2)C3)CC1 [compound 821, 5-cyclopropyl-N-((1R,3r,5S)-8-((4-(isopentylamino)piperidin-1-yl)sulfonyl)-8-azabicyclo[3.2.1]octan-3-yl)isoxazole-3-carboxamide] | 58.5 nM | 3.28 nM
8 | CCN1C2CCC1CN(S(=O)(=O)N1[C@@H]3CC[C@H]1C[C@@H](NC(=O)c1cc(C4CC4)on1)C3)C2 [compound 822, 5-cyclopropyl-N-((1R,3r,5S)-8-((8-ethyl-3,8-diazabicyclo[3.2.1]octan-3-yl)sulfonyl)-8-azabicyclo[3.2.1]octan-3-yl)isoxazole-3-carboxamide] | 43.7 nM | 3.44 nM
9 | C[C@H]1C[C@@H](NC(=O)c2cc(C3CC3)on2)CCN1S(=O)(=O)CC1CCC(N(C)C)C1 (stereo partly drawn) [compound 823, 5-cyclopropyl-N-((2S,4S)-1-(((3-(dimethylamino)cyclopentyl)methyl)sulfonyl)-2-memylpiperidin-4-yl)isoxazole-3-carboxamide] | 67.2 nM | 3.5 nM
10 | O=C(N[C@H]1C[C@H]2CC[C@@H](C1)N2S(=O)(=O)N1CC2(CCN(Cc3ccccc3)CC2)C1)c1cc(C2CC2)on1 [compound 824, N-((1R,3r,5S)-8-((7-benzyl-2,7-diazaspiro[3.5]nonan-2-yl)sulfonyl)-8-azabicyclo[3.2.1]octan-3-yl)-5-cyclopropylisoxazole-3-carboxamide] | 80.4 nM | 3.87 nM
11 | COCCN[C@H]1CC[C@H](S(=O)(=O)N2[C@@H]3CC[C@H]2C[C@@H](NC(=O)c2cc(C4CC4)on2)C3)CC1 [compound 825, 5-cyclopropyl-N-((1R,3R,5S)-8-(((1r,4R)-4-((2-methoxyemyl)amino)cyclohexyl)sulfonyl)-8-azabicyclo[3.2.1]octan-3-yl)isoxazole-3-carboxamide] | 55.3 nM | 3.91 nM
12 | COCCN[C@H]1CC[C@@H](S(=O)(=O)N2[C@@H]3CC[C@H]2C[C@@H](NC(=O)c2cc(C4CC4)on2)C3)CC1 [compound 826, 5-cyclopropyl-N-((1R,3R,5S)-8-(((1s,4S)-4-((2-methoxyethyl)amino)cyclohexyl)sulfonyl)-8-azabicyclo[3.2.1]octan-3-yl)isoxazole-3-carboxamide] | 58.4 nM | 3.92 nM
13 | C[C@H]1C[C@@H](NC(=O)c2cc(C3CC3)on2)CCN1S(=O)(=O)CC1CCCC(N)C1 (stereo partly drawn) [compound 827, N-((2S,4S)-1-(((3-aminocyclohexyl)methyl)sulfonyl)-2-methylpiperidin-4-yl)-5-cyclopropylisoxazole-3-carboxamide] | 72.7 nM | 4 nM
14 | C[C@H]1C[C@@H](NC(=O)c2cc(C3CC3)on2)CCN1S(=O)(=O)N1C2CNCC1C2 [compound 828, N-((2S,4S)-1-((3,6-diazabicyclo[3.1.1]heptan-6-yl)sulfonyl)-2-methylpiperidin-4-yl)-5-cyclopropylisoxazole-3-carboxamide] | 150 nM | 4.18 nM
15 | CCNC1CCN(S(=O)(=O)N2CC[C@H](NC(=O)c3cc(C4CC4)on3)C[C@@H]2C)CC1 [compound 829, 5-cyclopropyl-N-((2S,4S)-1-((4-(ethylamino)piperidin-1-yl)sulfonyl)-2-methylpiperidin-4-yl)isoxazole-3-carboxamide] | 70.2 nM | 4.3 nM
16 | NCC1CCN(S(=O)(=O)N2[C@@H]3CC[C@H]2C[C@@H](NC(=O)c2cc(C4CC4)on2)C3)CC1 [compound 830, N-((1R,3r,5S)-8-((4-(aminomethyl)piperidin-1-yl)sulfonyl)-8-azabicyclo[3.2.1]octan-3-yl)-5-cyclopropylisoxazole-3-carboxamide] | 1550 nM | 4.34 nM
17 | CC1CN(S(=O)(=O)N2[C@@H]3CC[C@H]2C[C@@H](NC(=O)c2cc(C4CC4)on2)C3)CCC1N (stereo partly drawn) [compound 831, N-((1R,3r,5S)-8-((4-amino-3-methylpiperidin-1-yl)sulfonyl)-8-azabicyclo[3.2.1]octan-3-yl)-5-cyclopropylisoxazole-3-carboxamide] | 85.1 nM | 4.36 nM
18 | O=C(N[C@H]1C[C@H]2CC[C@@H](C1)N2S(=O)(=O)N1C2CNCC1C2)c1cc(C2CC2)on1 [compound 832, N-((1R,3r,5S)-8-((3,6-diazabicyclo[3.1.1]heptan-6-yl)sulfonyl)-8-azabicyclo[3.2.1]octan-3-yl)-5-cyclopropylisoxazole-3-carboxamide] | 134 nM | 4.38 nM
19 | CCc1cc(C(=O)N[C@H]2C[C@H]3CC[C@@H](C2)N3S(=O)(=O)[C@H]2CC[C@@H](NCCO)CC2)no1 [compound 833, 5-ethyl-N-((1R,3R,5S)-8-(((1s,4S)-4-((2-hydroxyethyl)amino)cyclohexyl)sulfonyl)-8-azabicyclo[3.2.1]octan-3-yl)isoxazole-3-carboxamide] | 72.2 nM | 4.47 nM
20 | CN(CCCO)C1CCN(S(=O)(=O)N2[C@@H]3CC[C@H]2C[C@@H](NC(=O)c2cc(C4CC4)on2)C3)CC1 [compound 834, 5-cyclopropyl-N-((1R,3r,5S)-8-((4-((3-hydroxypropyl)(methyl)amino)piperidin-1-yl)sulfonyl)-8-azabicyclo[3.2.1]octan-3-yl)isoxazole-3-carboxamide] | 48.7 nM | 4.57 nM
21 | O=C(N[C@H]1C[C@H]2CC[C@@H](C1)N2S(=O)(=O)N1CCC2(CCCN2)CC1)c1cc(C2CC2)on1 [compound 835, N-((1R,3r,5S)-8-((1,8-diazaspiro[4.5]decan-8-yl)sulfonyl)-8-azabicyclo[3.2.1]octan-3-yl)-5-cyclopropylisoxazole-3-carboxamide] | 118 nM | 4.63 nM
22 | C[C@H]1C[C@@H](NC(=O)c2cc(C3CC3)on2)CCN1S(=O)(=O)C[C@H]1CCC[C@H](N)C1 [compound 836, N-((2S,4S)-1-((((1S,3S)-3-aminocyclohexyl)methyl)sulfonyl)-2-methylpiperidin-4-yl)-5-cyclopropylisoxazole-3-carboxamide] | 89 nM | 4.64 nM
23 | C[C@H]1CN(S(=O)(=O)[C@H]2CC[C@H](N(C)C)CC2)CC[C@H]1NC(=O)c1cc(C2CC2)on1 [compound 837, 5-cyclopropyl-N-((3S,4R)-1-(((1r,4S)-4-(dimethylamino)cyclohexyl)sulfonyl)-3-methylpiperidin-4-yl)isoxazole-3-carboxamide] | 84.4 nM | 4.82 nM
24 | CN(CCCC(F)(F)F)C1CCN(S(=O)(=O)N2[C@@H]3CC[C@H]2C[C@@H](NC(=O)c2cc(C4CC4)on2)C3)CC1 [compound 838, 5-cyclopropyl-N-((1R,3r,5S)-8-((4-(methyl(4,4,4-trifluorobutyl)amino)piperidin-1-yl)sulfonyl)-8-azabicyclo[3.2.1]octan-3-yl)isoxazole-3-carboxamide] | 52.4 nM | 4.9 nM
25 | C[C@H]1C[C@@H](NC(=O)c2cc(C3CC3)on2)CCN1S(=O)(=O)N1CCC(N(C)Cc2ccccc2)CC1 [compound 839, N-((2S,4S)-1-((4-(benzyl(methyl)amino)piperidin-1-yl)sulfonyl)-2-methylpiperidin-4-yl)-5-cyclopropylisoxazole-3-carboxamide] | 154 nM | 4.97 nM
26 | O=C(N[C@H]1C[C@H]2CC[C@@H](C1)N2S(=O)(=O)N1CC2CC1CN2)c1cc(C2CC2)on1 [compound 840, N-((1R,3r,5S)-8-((2,5-diazabicyclo[2.2.1]heptan-2-yl)sulfonyl)-8-azabicyclo[3.2.1]octan-3-yl)-5-cyclopropylisoxazole-3-carboxamide] | 56 nM | 5.01 nM
